# Experimental data reported in article PMC7664216, “An Odorant Binding Protein (SaveOBP9) Involved in Chemoreception of the Wheat Aphid Sitobion avenae” (International Journal of Molecular Sciences, 2020).
# “Also recorded” adds a separate entry of the source. Like-named read-outs stand apart in the source and are kept apart here.
# Assays:
# [1] = biological target: SaveOBP9 (Sitobion avenae, UniProt A0A1I9ZLB6); experiment: Fluorescence competitive ligand binding assay with probe 1-NPN; settings: 1-NPN probe
# Procedure: Methanol (spectrophotometric-grade) was used to prepare the standard solution of each tested ligand (Sigma Aldrich, St. Louis, MO, USA). The binding ability of 1-NPN was measured by adding 1-NPN (1 mM) into protein solution (2 μM L^−1) diluted with Tris-HCl (30 mM), and the final concentration was made to 0 to 20 μM L^−1 at room temperature.
# The ligand’s binding with SaveOBP9 was conducted with three independent replicates.
# [2] = tested on: Sitobion avenae; experiment: Y-tube olfactometer behavioral bioassay; type: in vivo; settings: for Behavioral response of S. avenae: wingless adults, odor 0.10% (v/v) vs liquid paraffin control, pre-RNAi; for Post-RNAi behavioral response of S. avenae: after 3 days of dsSaveOBP9 feeding (50 ng/µL), compared to dsGFP and Control
# Description: Behavioral responses of Sitobion avenae were examined by using a glass Y-tube olfactometer (base = 2.0 cm diameter by 14 cm length, arms = 2.0 cm diameter by 13 cm length) using 7 different volatile compounds (Sigma-Aldrich, St. Louis, MO, USA). Air was passed through the activated charcoal for filtration at the continuous rate of 0.5 L/min and humidified using deionized water followed by the splitting of air between two arms of the olfactometer. One arm contained liquid paraffin (control) and the other had the test ligand. In addition, both chambers were connected to the central arm of the Y-tube. An aliquot of odors and liquid paraffin were loaded on with the concentration of 0.10% (v/v). Aphids were then placed in the trunk. Each insect was allowed 15 min to respond to the treatment, and the numbers of aphids showing attraction, repulsion, or no response were counted. Three replications (20 wingless aphids in each replication) for each group were applied.
# Y-tube bioassays were carried out before and after dietary RNAi application to confirm the SaveOBP9 gene-silencing outcome. Two treatments containing liquid paraffin and seven compounds (Ki < 10 μM), 2-ethyl1-hexanol, decanal, tetradecane, hexadecane, octanal, α-farnesene, and hexanal, were used. Three treatments containing Control, dsGFP feeding and dsRNA feeding were tested in behavioral trials after 3 days of feeding. For the post-RNAi bioassays, individuals were tested using the compounds: Tetradecane, octanal, decanal, and hexadecane. These four ligands were carefully chosen based on the observation of significant responses of S.avenae to these compounds in bioassays performed prior to the application of dietary RNAi.
# [3] = tested on: AlinOBP1; set-up: method as in PMID 21541988; settings: cited from earlier work
# [4] = tested on: SaveOBP2; set-up: method as in PMID 22306433; settings: cited from earlier work
# [5] = tested on: SaveOBP3; set-up: method as in PMID 22306433; settings: cited from earlier work
# [6] = tested on: SaveOBP7; set-up: method as in PMID 22306433; settings: cited from earlier work
# [7] = tested on: Aphis fabae; set-up: method as in PMID 18584254; settings: Black bean aphid Aphis fabae; cited from earlier work
# Chain of SaveOBP9 (A0A1I9ZLB6 entry or part of it): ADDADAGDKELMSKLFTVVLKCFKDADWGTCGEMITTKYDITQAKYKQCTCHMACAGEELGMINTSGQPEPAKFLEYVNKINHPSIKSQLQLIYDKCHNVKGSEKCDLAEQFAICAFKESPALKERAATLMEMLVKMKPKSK
"IC50 ([1]; pH 5.0, read-out: IC50) [µM]","Ki ([1]; pH 5.0, read-out: Ki) [µM]","IC50 ([1]; pH 7.4, read-out: IC50) [µM]","Ki ([1]; pH 7.4, read-out: Ki) [µM]",Compound,"IC50 ([1]; IC50, pH 5.0) [µM]","IC50 ([1]; IC50, pH 7.4) [µM]","Ki ([1]; Ki, pH 5.0) [µM]","Ki ([1]; Ki, pH 7.4) [µM]",further results
17.4,15.7,48.2,42.8,CC12CCC(CC1=O)C2(C)C (racemic) [(±)-Camphor],–,–,–,–,–
39.9,36.1,14.7,13,"CC1=CCC2C(C1)C2(C)C (single isomer, unassigned; (+)) [(+)-3-Carene]",–,–,–,–,–
34.2,30.9,24.2,21.5,C=CC(O)CCCCC (centres unmarked) [1-Octen-3-ol],–,–,–,–,–
43.8,39.6,11.2,9.93,CCCCC(CC)CO (centres unmarked) [2-Ethyl-1-hexanol],–,–,–,–,Behavioral response of S. avenae [2]: did not show stimuli; Binding affinity [3]: high binding affinity
–,–,–,–,C=CCCN=C=S [3-Butenyl isothiocyanate],26.3,52.7,23.8,46.8,–
30.8,27.8,13,11.5,CC(=O)c1ccccc1 [Acetophenone],–,–,–,–,–
–,–,–,–,O=Cc1ccccc1 [Benzaldehyde],41,109,37,96.5,–
8.8,7.95,45.6,40.5,Cc1cc(C(C)(C)C)c(O)c(C(C)(C)C)c1 [Butylated Hydroxytoluene],–,–,–,–,–
19.8,17.9,9.95,8.84,CCCCCCCCCC=O [Decanal],–,–,–,–,Post-RNAi behavioral response of S. avenae [2]: non-significant preference; Behavioral response of S. avenae [2]: significantly showed attractive responses; also recorded: strongly attracted S. avenae; Binding ability [4]: None of the three SaveOBPs have the ability to bind; Binding ability [5]: None of the three SaveOBPs have the ability to bind; Binding ability [6]: None of the three SaveOBPs have the ability to bind; EAG response [7]: significant electroantennography (EAG) response
14.6,13.2,10.9,9.68,CCCCCCCCCCCCCCCC [Hexadecane],–,–,–,–,Post-RNAi behavioral response of S. avenae [2]: non-significant preference; Behavioral response of S. avenae [2]: significantly showed attractive responses; also recorded: strongly attracted S. avenae; Binding ability [4]: None of the three SaveOBPs have the ability to bind; Binding ability [5]: None of the three SaveOBPs have the ability to bind; Binding ability [6]: None of the three SaveOBPs have the ability to bind
–,–,–,–,CCCCCC=O [Hexanal],16.8,8.23,15.2,7.31,Behavioral response of S. avenae [2]: did not show stimuli
–,–,–,–,C=CC(C)(O)CCC=C(C)C (centres unmarked) [Linalool],11.8,24.1,10.7,21.4,–
–,–,–,–,COC(=O)c1ccccc1O [Methyl salicylate],24.2,13.4,21.9,11.9,–
–,–,–,–,c1ccc2ccccc2c1 [Naphthalene],30.3,13,27.4,11.5,–
12.3,11.1,39.8,35.4,CCCCCCCCC=O [Nonanal],–,–,–,–,–
20.3,18.3,8.79,7.8,CCCCCCCC=O [Octanal],–,–,–,–,Post-RNAi behavioral response of S. avenae [2]: non-significant preference; Behavioral response of S. avenae [2]: significantly showed attractive responses; also recorded: strongly attracted S. avenae; Binding ability [4]: relatively moderate binding ability; Binding ability [5]: relatively moderate binding ability; Binding ability [6]: no binding ability; EAG response [7]: significant electroantennography (EAG) response
15.1,13.7,12.8,11.4,CCCCCCCCCCCCCCC [Pentadecane],–,–,–,–,–
11.9,10.7,7.96,7.07,CCCCCCCCCCCCCC [Tetradecane],–,–,–,–,Post-RNAi behavioral response of S. avenae [2]: non-significant preference; Behavioral response of S. avenae [2]: significantly showed attractive responses; also recorded: strongly attracted S. avenae
–,–,–,–,CC/C=C\CCO [cis-3-Hexen-1-ol],36.9,13.2,33.3,11.8,–
–,–,29.7,26.4,CC/C=C\CCOC(C)=O [cis-3-Hexenyl acetate],–,–,–,–,–
–,–,–,–,CCC/C=C/C=O [trans-2-Hexen-1-al],21.6,41.9,19.5,37.2,–
–,–,–,–,CCC/C=C/CO [trans-2-Hexen-1-ol],21.7,14.5,19.6,12.9,–
–,–,–,–,C=CC(=C)CC/C=C(\C)CCC=C(C)C [trans-β-farnesene],–,–,–,–,Binding ability [5]: could bind; Binding ability [6]: could bind
9.51,8.59,10.3,9.11,C=C/C(C)=C/C/C=C(\C)CCC=C(C)C [α-Farnesene],–,–,–,–,Behavioral response of S. avenae [2]: did not show stimuli
–,–,–,–,CC1=CCC2CC1C2(C)C (stereo not drawn) [α-Pinene],27.2,38,24.6,33.7,–
–,–,–,–,CC1=CC[C@@H](C(C)(C)O)CC1 [α-Terpineol],37.4,26.2,33.8,23.3,–
–,–,–,–,C=C1CCC2CC1C2(C)C (stereo not drawn) [β -Pinene],27.7,37.4,25.1,33.2,–
–,–,–,–,C=C1CC/C=C(\C)CC[C@@H]2[C@@H]1CC2(C)C [β-Caryophyllene],622,52.4,562,46.6,–
10.7,9.67,12.2,10.8,C=CC(=C)CCC=C(C)C [β-Myrcene],–,–,–,–,–

Compound,"IC50 ([1]; pH 5.0, read-out: IC50) [µM]","Ki ([1]; pH 5.0, read-out: Ki) [µM]","IC50 ([1]; pH 7.4, read-out: IC50) [µM]","Ki ([1]; pH 7.4, read-out: Ki) [µM]","IC50 ([1]; IC50, pH 5.0) [µM]","IC50 ([1]; IC50, pH 7.4) [µM]","Ki ([1]; Ki, pH 5.0) [µM]","Ki ([1]; Ki, pH 7.4) [µM]",further results
C=C(C)[C@@H]1CC=C(C)CC1 [S-(−)-Limonene],11.5,10.4,32.1,28.5,–,–,–,–,–
(+)-Limonene oxide,37.5,33.9,24.3,21.6,–,–,–,–,–
